The source of these data is US9918983B2, “Suicidal LSD1 inhibitors targeting SOX2-expressing cancer cells” (THE BOARD OF REGENTS OF THE NEVADA SYSTEM OF HIGHER …, priority 2013, dated 2018).

Experiment [1] concerns the target T1, recombinant HDAC1 (GST-HDAC1) (Homo sapiens, UniProt Q13547).
T1 construct: Human LSD1 and HDAC1 full-length cDNAs were obtained from Open Biosystems; GST (N, cleaved yes); made in house; host or cells: Escherichia coli BL21
In words: In vitro deacetylation assay, recombinant HDAC1, H4K16ac peptide. The following applies: LSD1 and HDAC1 without CoREST. It is filed as biochemical.
From the text: Human LSD1 and HDAC1 full-length cDNAs were obtained from Open Biosystems. […] These cDNAs were fully sequenced and cloned into the pGEX-KG or pET28a vector and expressed as the glutathione S-transferase (GST)- or His-tagged fusion proteins in the Escherichia coli BL21 strain and affinity purified with glutathione or Ni-Sepharose (GE Healthcare, United Kingdom) resin. […] The GST tag and uncut GST-HDAC1/GST-LSD1 proteins were depleted by glutathione-Sepharose. For the reconstitution reaction, recombinant GST-CoREST, His-LSD1, and recombinant HDAC1 (rHDAC1) (GST was removed by the use of PreScission protease) (10 μg) were assembled into the LSD1-CoREST-HDAC1 complex and then pulled down by GSTSepharose resins. Protein A-Sepharose was used as a negative-control resin.
The percentages of deacetylated products were analyzed by mass spectrometry, and the data were analyzed by GraphPad Prism (version 5) software.

In experiment [2] the test system is histone H3 and H4 methylation and acetylation. Briefly: Histone modifications in F9 cells (Western blotting). It counts as cell-based, mouse. The protocol:
To quantify and compare the protein band densities in the Western blots shown in the figures, a titration by serial dilution of the siRNA protein samples for mES cell lysates was used as a reference. The concentration of titration samples was measured by use of a NanoDrop 2000 apparatus, and the protein concentration of all titration samples was adjusted to 1 μg/μL. The protein samples were loaded onto an SDS-polyacrylamide gel at levels ranging from 1 μg to 13 μg at 2-μg intervals and immune blotted with each antibody, including anti-LSD1, anti-HDAC1, and anti-histone H3 antibodies, with three independent loadings. The Western blots were developed with exposure times ranging from 30 s to 1 min. The exposure density of each band was scanned by Adobe Photoshop Elements (version 4.0) software using a CanonScan 8600F scanner (Canon, Calif.) and was subsequently quantified by use of the area density tool of Gel-Pro Analyzer (version 4.0) software (Media Cybernetics, Inc.) and plotted. The regression analysis of each signal was performed by use of the Microsoft Excel program's Analysis Tool Pak regression option. […] The amount of the protein band in the Western blot shown in the figures was quantified by scanning, as described for the reference titration. […] The quantity of protein band densities between two protein samples was externally corrected by use of the reference plots. […] The statistical differences between the experimental and control groups were analyzed by one-way analysis of variance (ANOVA). […]
Referring to FIG. 28D, time course analyses of the effects of 50 μM LSD1 inhibitor CBB1007 on histone modifications in F9 cells are shown, but with a shorter time course than above. The mean density of each band was quantified by the use of Gel-Pro Analyzer (version 4.0) software, and error bars represent SEMs for duplicate samples. […] The statistical differences were analyzed by one-way ANOVA. *, P_0.05; **, P_0.01. […]

The next experiment relates to PA-1 cells. Briefly: Cell growth/viability (MTT, microscopy). It is filed as cell-based, human. The following applies: PA-1 cells, 50 μM, 30 hours. The protocol:
(§1) Lung, breast, ovarian, and other carcinoma cells were either obtained from American Type Culture Collection (ATCC) or from the DTP and DCTD Tumor Repository of National Cancer Institute (the NCI-60 cancer cell line panel), operated by Charles River Laboratory, Inc., as listed in Table 1. They were cultured according to instructions and treated with various concentrations of LSD1 inhibitors for 30-36 hours for mRNA analysis by quantitative real time RT-PCR or for 30-48 hours for protein analysis and the cell viability assays using Western blotting or microscopy and MTT assays as described previously (Wang, J., et al. (2011) Cancer Research 71, 7238-7249).
(§2) Alternatively, cell viability assays were conducted as previously described (Wang, J., et al. (2011) Cancer Research 71, 7238-7249). For the MTT assay, cells were seeded onto 96-well culture plates with a density of 2000-5000 cells/well, and incubated with CBB1003 or CBB1007 at various concentrations from 1 to 100 μM for 30-48 hours, depending cell growth rate. Dimethylsulfoxide (DMSO) was used as a solvent control. MTT was added to a final concentration of 0.5 mg/mL and cells were re-incubated for 4 hours. After removing the medium, 200 μL DMSO was added to dissolve formazan, followed by incubation for 10 minutes, and absorbance was measured at 490 nm by a Bio Red microplate reader. All assays were performed in triplicates for each concentration. The cell viability rate was calculated as the relative percentage of MTT absorption as follows: % cell viability=(mean experimental absorbance/mean control absorbance)×100.
Table 8 below lists activity of CBB3001 (compound 10) in Sox2-negative (ES-2) and Sox2-expressing (PA-1 and T47D) cancer cells determined in a cell-based assay as described herein (see also FIG. 3A-C).

Another experiment concerns Sox2. In words: Sox2 protein level by western blotting in carcinoma cells. It counts as cell-based, human. The following applies: indicated carcinoma cells, 30 hr. Further details: dose or concentration left out as unconfirmed. From the text: Log-phase growing cancer cells were directly lysed in a buffer containing 0.5% SDS. Proteins in the lysates were equalized and analyzed by Western blotting using antibodies against Sox2, LSD1, H3K4Me1, H3K4Me2, Oct4, and other proteins as described previously or in the figure descriptions (Wang, J., et al. (2011) Cancer Research 71, 7238-7249). For immunohistochemical staining, rabbit monoclonal anti-LSD1 (clone C69G12, cat. #2184) and anti-Sox2 (clone D6D9, cat. #3579) antibodies were obtained from Cell Signaling. Rabbit anti-Sox2 polyclonal antibodies were raised using the purified GST-Sox2 fusion protein as the antigen.
Referring to FIG. 11A, inactivation of LSD1 by LSD1 inhibitors or siRNAs caused the downregulation of Sox2. The indicated carcinoma cells were treated with […] of the LSD1 inhibitors CBB1007 and CBB1003 for 30 hr or with 50 nM of Luc or LSD1 siRNAs for 60 hr. The protein levels of LSD1, Sox2, Lin28, CUL1, and histone H3 were analyzed by western blotting.

A further experiment relates to HS38.T cells. Briefly: Cell growth/viability (MTT, microscopy). It counts as cell-based, human. The following applies: 50 μM, 30 hours. The protocol:
as §1, §2

Another experiment deals with SK-BR-3 cells. In words: Cell growth/viability (MTT, microscopy). It is filed as cell-based, human. The following applies: 50 μM, 30 hours. The protocol:
as §1, §2

For another experiment, the system named is SKOV-3 cells. Briefly: Cell growth/viability (MTT, microscopy). It is filed as cell-based, human. The following applies: 50 μM, 30 hours. The method, then:
as §1, §2

In the next experiment the test system is MCF7 cells. In words: Cell growth/viability (MTT, microscopy). It counts as cell-based, human. The following applies: 50 μM, 30 hours. The method, then:
as §1, §2

The test system of the next experiment is IGROV-1 cells. Briefly: Cell growth/viability (MTT, microscopy). It counts as cell-based, human. The following applies: 50 μM, 30 hours. The method, then: as §1, §2

Bounds are passed on as bounds.

T1 sequence (Q13547 whole entry): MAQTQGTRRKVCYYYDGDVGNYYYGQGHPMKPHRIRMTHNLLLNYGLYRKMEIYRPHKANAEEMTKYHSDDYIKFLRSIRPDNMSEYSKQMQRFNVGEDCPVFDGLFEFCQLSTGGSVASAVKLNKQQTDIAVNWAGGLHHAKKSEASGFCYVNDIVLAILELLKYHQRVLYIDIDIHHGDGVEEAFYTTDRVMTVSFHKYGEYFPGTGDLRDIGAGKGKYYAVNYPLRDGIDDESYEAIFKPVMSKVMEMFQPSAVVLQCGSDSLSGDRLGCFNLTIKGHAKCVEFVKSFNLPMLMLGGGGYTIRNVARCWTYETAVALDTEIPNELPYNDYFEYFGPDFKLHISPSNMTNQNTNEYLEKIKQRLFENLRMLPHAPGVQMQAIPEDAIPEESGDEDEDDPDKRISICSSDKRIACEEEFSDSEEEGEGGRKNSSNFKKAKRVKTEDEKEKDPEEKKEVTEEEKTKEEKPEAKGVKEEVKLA

`COC(=O)c1cc(CN2CCN(C(=N)N)CC2)cc(C(=O)N2CCN(C(=O)c3ccc(C(=N)N)cc3)CC2)c1` [CBB1007]: in experiment [1], the “HDAC1 activity in the absence of CoREST” value is reported as “not inhibited”. Besides, in [2], the “H3K4 methylation of oligonucleosomes from treated cells” value is “hypermethylated on H3K4”. Besides, in experiment [2] (50 μM), the “time to increases of acetylation at H4K16 and H3K56 and mono- and dimethylation at H3K4” value is given as no more than 20 min. Moreover, the cell growth result is “sensitive” in the experiment on PA-1 cells; “not sensitive” in the experiment on HS38.T cells; “not sensitive” in the experiment on SK-BR-3 cells; “sensitive” with SKOV-3 cells; “sensitive” in the experiment with MCF7 cells; “sensitive” in the experiment with IGROV-1 cells. The Sox2 protein level entry in the experiment with Sox2 was “downregulation”.
